From paper PMC9150099, “Preventing Influenza A Virus Infection by Mixed Inhibition of Neuraminidase and Hemagglutinin by Divalent Inhibitors” (Journal of Medicinal Chemistry, 2022)

Tests used:
[1] = molecular target: Recombinant soluble N9 protein (N9 Spain) neuraminidase tetramer (Influenza A virus, UniProt K9MBB0); type: biochemical, Influenza A virus A/Anascrecca/Spain/1460/2008(H7N9)
[2] = system: recombinant soluble tetrameric N1 and N9 proteins (neuraminidase); type: biochemical; conditions: for IC50: read-out: inhibition of recombinant NA tetramers in enzymatic MUNANA assay (IC50 μM)
[3] = molecular target: NA of the whole Neth09H1N1 virus (Influenza A virus, UniProt C3PSV3); type: biochemical, Influenza virus A/Netherlands/602/2009 (Neth09H1N1); conditions: for IC50: read-out: inhibition of NA of the whole virus in enzymatic MUNANA assay (IC50 μM)
[4] = system: Neth09H1N1 virus infection of MDCK cells; type: cell-based, Influenza virus A/Netherlands/602/2009 (Neth09H1N1)
[5] = system: HA on virus particle (Neth09H1N1); type: binding, Influenza virus A/Netherlands/602/2009 (Neth09H1N1)
NA of Neth09H1N1 virus = type: biochemical, Influenza virus A/Netherlands/602/2009 (Neth09H1N1)
[6] = system: HA on virus particle (Neth09H1N1); conditions: cited from earlier work

SMILES	IC50 [2] [µM]	IC50 [3] [µM]	CPE assay [4] [mM]	CPE reduction assay on MDCK cells, lowest concentration that inhibits CPE formation [4] [µM]	inhibition of virus-receptor binding (HA inhibition) by BLI [5]	other results
C#CCCCC[C@H](CC)O[C@@H]1OC(C(=O)O)=C[C@H](O)[C@H]1NC(C)=O [Compound 12]	6.4 ± 1	2.33 ± 0.005	>5	>5	significant HA binding	reduction of potency relative to parent OCM [1]: 6 fold; potency difference to OC (OC more potent) [2]: ca. 600 fold; potency difference to OC (OC more potent) [3]: ca. 600 fold
C#CCCCC[C@H](CC)O[C@H]1OC(C(=O)O)=C[C@H](O)[C@H]1NC(C)=O [Compound 14]	–	–	–	–	–	IC50, NA (N9 Spain) MUNANA enzyme inhibition [1]: no inhibition
C#CCCCC[C@@H](CC)O[C@H]1OC(C(=O)O)=C[C@H](O)[C@H]1NC(C)=O [Compound 15]	–	–	–	–	–	IC50, NA (N9 Spain) MUNANA enzyme inhibition [1]: no inhibition
CC[C@@H](CCCCc1cn([C@H]2[C@H](OC(C)=O)[C@@H](OC(C)=O)[C@H](n3cc(CCCC[C@H](CC)O[C@@H]4OC(C(=O)O)=C[C@H](O)[C@H]4NC(C)=O)nn3)O[C@@H]2COC(C)=O)nn1)O[C@@H]1OC(C(=O)O)=C[C@H](O)[C@H]1NC(C)=O [Compound 17a]	24.4 ± 17.5	9.4 ± 0.4	>5	>5	–	–
CC[C@@H](CCCCc1cn([C@H]2[C@H](O)[C@@H](O)[C@H](n3cc(-c4ccc(-c5cn([C@H]6[C@H](O)[C@@H](O)[C@H](n7cc(-c8ccc(-c9cn([C@@H]%10O[C@H](CO)[C@@H](n%11cc(CCCC[C@H](CC)O[C@@H]%12OC(C(=O)O)=C[C@H](O)[C@H]%12NC(C)=O)nn%11)[C@H](O)[C@H]%10O)nn9)cc8)nn7)O[C@@H]6CO)nn5)cc4)nn3)O[C@@H]2CO)nn1)O[C@@H]1OC(C(=O)O)=C[C@H](O)[C@H]1NC(C)=O [Compound 21]	1.3 ± 0.4	0.11 ± 0.004	0.45 ± 0.4	0.45 ± 0.4	largest effect	potency difference to OC (OC more potent) [2]: ca. 100 fold; multivalency enhancement in comparison with monovalent 12 [3]: 20–30 fold; potency difference to OC (OC more potent) [3]: ca. 25 fold; amount needed to prevent cell killing (CPE) relative to IC50 in MUNANA assay with the whole virus [4]: 4 fold; better CPE inhibitor than OC [4]: ca. 2 fold; inhibition of virus binding to the BLI sensor, compound alone [5]: sufficient to prevent apparent viral binding to the sensor; inhibition of virus-receptor binding by BLI in the presence of OC (Figure 5a) [5]: inhibited virus-receptor binding; NA inhibition judged from virus re-binding to regenerated sensor (NA of Neth09H1N1 virus): able to inhibit the NA
CC[C@@H](CCCCc1cn([C@H]2[C@H](O)[C@@H](O)[C@H](n3cc(-c4ccc(-c5cn([C@@H]6O[C@H](CO)[C@@H](n7cc(-c8cc(O)c(-c9cn([C@@H]%10O[C@H](CO)[C@@H](n%11cc(-c%12ccc(-c%13cn([C@@H]%14O[C@H](CO)[C@@H](n%15cc(CCCC[C@H](CC)O[C@@H]%16OC(C(=O)O)=C[C@H](O)[C@H]%16NC(C)=O)nn%15)[C@H](O)[C@H]%14O)nn%13)cc%12)nn%11)[C@H](O)[C@H]%10O)nn9)cc8O)nn7)[C@H](O)[C@H]6O)nn5)cc4)nn3)O[C@@H]2CO)nn1)O[C@@H]1OC(C(=O)O)=C[C@H](N)[C@H]1NC(C)=O [Compound 24]	10.6 ± 1.7	4.7 ± 0.9	0.84 ± 0.4	0.84 ± 0.4	did not have increased inhibitory activity compared to monovalent 12	amount needed to prevent cell killing (CPE) relative to IC50 in MUNANA assay with the whole virus [4]: 0.2 fold
CCC(CC)O[C@@H]1C=C(C(=O)O)C[C@H](N)[C@H]1NC(C)=O [OC, oseltamivir carboxylate, reference compound]	–	0.004 ± 0.001	1.0 ± 0.4	1.0 ± 0.4	–	interference with HA-receptor binding [6]: does not interfere with HA-receptor binding
CCC(CC)O[C@@H]1OC(C(=O)O)=C[C@H](O)[C@H]1NC(C)=O [OCM, reference compound]	–	–	–	–	can be observed	–
